From ChEMBL document CHEMBL1201862, “PubChem BioAssay data set” (2004)
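Results reflect a 48-hour exposure of cells in 96-well plates to compound at five concentrations. Here, GI50 denotes the concentration required for 50% inhibition of growth.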 Active and inactive are the calls of the source. No stated cut-off is given here; in the data, active = GI50 up to about 1.1 µM and inactive = higher.

Assays:
Experiment in all cases: growth of human tumour cells (NCI), 48 h
SN12C = test system: SN12C
MCF7 = test system: MCF7
Malme-3M = test system: Malme-3M
MOLT-4 = test system: MOLT-4
EKVX = test system: EKVX
LOX IMVI = test system: LOX IMVI
UACC-257 = test system: UACC-257
OVCAR-8 = test system: OVCAR-8
OVCAR-5 = test system: OVCAR-5
OVCAR-3 = test system: OVCAR-3
SK-MEL-5 = test system: SK-MEL-5
SW-620 = test system: SW-620
786-0 = test system: 786-0
SK-MEL-28 = test system: SK-MEL-28
SR = test system: SR
SNB-75 = test system: SNB-75
M14 = test system: M14
HOP-62 = test system: HOP-62
A498 = test system: A498
MDA-N = test system: MDA-N

SMILES	GI50 (SN12C)	GI50 (MCF7)	GI50 (Malme-3M)	GI50 (MOLT-4)	GI50 (EKVX)	GI50 (LOX IMVI)	GI50 (UACC-257)	GI50 (OVCAR-8)	GI50 (OVCAR-5)	GI50 (OVCAR-3)	GI50 (SK-MEL-5)	GI50 (SW-620)	GI50 (786-0)	GI50 (SK-MEL-28)	GI50 (SR)	GI50 (SNB-75)	GI50 (M14)	GI50 (HOP-62)	GI50 (A498)	GI50 (MDA-N)
COc1ccc(N[S+]([O-])C2CCCCC2)cc1 (stereo not given)	> 100 µM (inactive)	> 100 µM (inactive)	> 100 µM (inactive)	> 100 µM (inactive)	> 100 µM (inactive)	> 100 µM (inactive)	> 100 µM (inactive)	> 100 µM (inactive)	> 100 µM (inactive)	> 100 µM (inactive)	> 100 µM (inactive)	> 100 µM (inactive)	> 100 µM (inactive)	> 100 µM (inactive)	> 100 µM (inactive)	> 100 µM (inactive)	> 100 µM (inactive)	91.8 µM (inactive)		
C=CCOC(=O)C1=C(CCC[C@@H](C)O[Si](C)(C)C(C)(C)C)N=C(N)N2[C@H](CCO)CC[C@@H]12	16.5 µM (inactive)	7.69 µM (inactive)	18 µM (inactive)	10.5 µM (inactive)			15.6 µM (inactive)			11.1 µM (inactive)	12.4 µM (inactive)		17.9 µM (inactive)	17.5 µM (inactive)		16.4 µM (inactive)	13.9 µM (inactive)	14.1 µM (inactive)	18 µM (inactive)	17 µM (inactive)
Oc1ccc(/C=N/N=c2\[nH][nH]/c(=N\N=C\c3ccc(O)cc3O)c3ccccc23)c(O)c1	0.308 µM (active)	0.274 µM (active)		0.0865 µM (active)	0.211 µM (active)	0.313 µM (active)	0.428 µM (active)	0.25 µM (active)	0.422 µM (active)	0.185 µM (active)	0.236 µM (active)	0.385 µM (active)	0.378 µM (active)		0.136 µM (active)		0.318 µM (active)	0.304 µM (active)		0.228 µM (active)
CCOC(=O)COc1cc(-c2ccccc2F)nc2cc3c(cc12)OCO3	> 100 µM (inactive)	> 100 µM (inactive)	> 100 µM (inactive)	27.8 µM (inactive)	85.5 µM (inactive)	53.7 µM (inactive)	> 100 µM (inactive)	> 100 µM (inactive)	> 100 µM (inactive)	> 10 µM (inactive)	71.9 µM (inactive)	> 100 µM (inactive)	> 100 µM (inactive)	> 100 µM (inactive)	> 10 µM (inactive)	59.4 µM (inactive)	> 100 µM (inactive)	> 100 µM (inactive)		> 100 µM (inactive)
CC[C@H](CO)Nc1nc(NCc2ccccc2)c2ncn(C(C)C)c2n1 [SELICICLIB]		13.5 µM (inactive)	19.3 µM (inactive)	25.1 µM (inactive)	19.1 µM (inactive)	14 µM (inactive)			42.8 µM (inactive)	11.5 µM (inactive)	10.7 µM (inactive)	82.4 µM (inactive)	23.3 µM (inactive)		5.4 µM (inactive)	11.3 µM (inactive)	27.9 µM (inactive)	24.6 µM (inactive)	48.1 µM (inactive)	
COc1cc(Nc2cnc3cc(F)c(F)cc3n2)cc(OC)c1OC	> 100 µM (inactive)	> 100 µM (inactive)	> 100 µM (inactive)	> 100 µM (inactive)	> 100 µM (inactive)	40 µM (inactive)	> 100 µM (inactive)	> 100 µM (inactive)	> 100 µM (inactive)	> 100 µM (inactive)	> 100 µM (inactive)	> 100 µM (inactive)	> 100 µM (inactive)	> 100 µM (inactive)		> 100 µM (inactive)	> 100 µM (inactive)	91.8 µM (inactive)	> 100 µM (inactive)	> 100 µM (inactive)
O=C1C(C(O)(C(F)(F)Cl)C(F)(F)Cl)CCCC1C(O)(C(F)(F)Cl)C(F)(F)Cl (stereo not given)		> 10 µM (inactive)	> 10 µM (inactive)		> 10 µM (inactive)	> 10 µM (inactive)	> 10 µM (inactive)	> 10 µM (inactive)	> 10 µM (inactive)	> 10 µM (inactive)	> 10 µM (inactive)	> 10 µM (inactive)	> 10 µM (inactive)	> 10 µM (inactive)			> 10 µM (inactive)	> 10 µM (inactive)	> 10 µM (inactive)	> 10 µM (inactive)
O=C1CCCCc2cccc(O)c21	> 100 µM (inactive)	> 100 µM (inactive)	> 100 µM (inactive)	> 100 µM (inactive)	> 100 µM (inactive)	> 100 µM (inactive)	> 100 µM (inactive)	> 100 µM (inactive)	> 100 µM (inactive)	> 100 µM (inactive)	> 100 µM (inactive)	> 100 µM (inactive)	> 100 µM (inactive)	> 100 µM (inactive)	> 100 µM (inactive)	> 100 µM (inactive)	> 100 µM (inactive)	> 100 µM (inactive)	> 100 µM (inactive)	
CC1SC(=O)SC1C (stereo not given)	> 100 µM (inactive)	> 100 µM (inactive)		> 100 µM (inactive)	> 100 µM (inactive)		> 100 µM (inactive)	> 100 µM (inactive)	> 100 µM (inactive)		> 100 µM (inactive)	> 100 µM (inactive)	> 100 µM (inactive)	> 100 µM (inactive)	> 100 µM (inactive)	> 100 µM (inactive)	> 100 µM (inactive)	> 100 µM (inactive)		> 100 µM (inactive)
O=C1/C(=C/c2ccccc2)CN(C(=O)Oc2ccc(Cl)cc2)C/C1=C\c1ccccc1	1.84 µM (inactive)		11.3 µM (inactive)	2.65 µM (inactive)	10 µM (inactive)	0.635 µM (active)	1.7 µM (inactive)	1.65 µM (inactive)	10.9 µM (inactive)	3.42 µM (inactive)	1.68 µM (inactive)	1.22 µM (inactive)	1.96 µM (inactive)	2.1 µM (inactive)	1.32 µM (inactive)	4.24 µM (inactive)	1.53 µM (inactive)	10 µM (inactive)	2.11 µM (inactive)	
COc1cc(Nc2cc(Cl)cc(Cl)c2)nc(N)n1	20.9 µM (inactive)	27.2 µM (inactive)	21.3 µM (inactive)	16.6 µM (inactive)	6.11 µM (inactive)	16.3 µM (inactive)	19.3 µM (inactive)	18.9 µM (inactive)	40 µM (inactive)	17.2 µM (inactive)	15.3 µM (inactive)	19.7 µM (inactive)	17.4 µM (inactive)			15.5 µM (inactive)	20.1 µM (inactive)	17.5 µM (inactive)	21.9 µM (inactive)	27.1 µM (inactive)
Nc1nc(N)c2ncn(Cc3ccccc3CO)c2n1	> 100 µM (inactive)	> 100 µM (inactive)	> 100 µM (inactive)	> 100 µM (inactive)	> 100 µM (inactive)	> 100 µM (inactive)	> 100 µM (inactive)	> 100 µM (inactive)	> 100 µM (inactive)	> 100 µM (inactive)	> 100 µM (inactive)	> 100 µM (inactive)	> 100 µM (inactive)	> 100 µM (inactive)	> 100 µM (inactive)	> 100 µM (inactive)	> 100 µM (inactive)	> 100 µM (inactive)	> 100 µM (inactive)	
NCCCN(CCCCN(CCCN)C(=O)OCc1ccccc1)C(=O)OCc1ccccc1	> 100 µM (inactive)	30.9 µM (inactive)		47.9 µM (inactive)	> 100 µM (inactive)	39.8 µM (inactive)	93.5 µM (inactive)	> 100 µM (inactive)	> 100 µM (inactive)	43.2 µM (inactive)	> 100 µM (inactive)	> 100 µM (inactive)	> 100 µM (inactive)	> 100 µM (inactive)		56.8 µM (inactive)	> 100 µM (inactive)	> 100 µM (inactive)	> 100 µM (inactive)	
COC(=O)c1ccc(/N=N/N(C)CO)cc1	> 100 µM (inactive)		> 100 µM (inactive)	> 100 µM (inactive)	> 100 µM (inactive)	> 100 µM (inactive)	> 100 µM (inactive)	83.2 µM (inactive)	> 100 µM (inactive)	91.4 µM (inactive)	> 100 µM (inactive)	> 100 µM (inactive)	74 µM (inactive)	> 100 µM (inactive)	44.3 µM (inactive)	27.7 µM (inactive)	71.1 µM (inactive)	81.8 µM (inactive)	51.8 µM (inactive)	
COP(=O)(Cc1ccccc1)Cc1ccccc1	> 100 µM (inactive)	> 100 µM (inactive)	> 100 µM (inactive)	> 100 µM (inactive)	> 100 µM (inactive)	> 100 µM (inactive)	> 100 µM (inactive)	> 100 µM (inactive)	> 100 µM (inactive)		> 100 µM (inactive)	> 100 µM (inactive)	> 100 µM (inactive)	> 100 µM (inactive)	> 100 µM (inactive)	> 100 µM (inactive)	> 100 µM (inactive)	> 100 µM (inactive)		
COc1ccc(OC)c2c(C(C)=O)cccc12	> 100 µM (inactive)	> 100 µM (inactive)	> 100 µM (inactive)	81.8 µM (inactive)	> 100 µM (inactive)		> 100 µM (inactive)	> 100 µM (inactive)	> 100 µM (inactive)	> 100 µM (inactive)	> 100 µM (inactive)	> 100 µM (inactive)	> 100 µM (inactive)	> 100 µM (inactive)	> 100 µM (inactive)			> 100 µM (inactive)	> 100 µM (inactive)	
